Where a name gives a salt, the structure may show the parent alone.
These compounds were tested against human activated kallikrein enzyme (Homo sapiens, UniProt P03952) (assay: Inhibition of human activated plasma kallikrein, fluorogenic PFR-AMC substrate, 500 pM enzyme format). Conditions: 500 pM activated kallikrein; 300 μM PFR-AMC; 30 min preincubation; 10 min room temperature; pH 7.5; read-out: Primary Dose Response Assay: Average EC50.
Assay type: biochemical
Experimental: Compounds were evaluated for inhibition of the human activated kallikrein enzyme in two formats of an assay employing a fluorogenic peptide substrate. In one assay format, the concentrations of reagents were as follows: 20 mM Tris pH 7.5, 1 mM EDTA, 150 mM sodium chloride, 0.1% PEG-400, 0.1% Triton X-100, 500 pM activated kallikrein enzyme, 300 μM Pro-Phe-Arg-7-amido-4-methylcoumarin (PFR-AMC) substrate. Prior to reaction initiation with substrate, enzyme and inhibitors were preincubated for 30 min at room temperature. After initiation with substrate, reactions were incubated for 10 min at room temperature and fluorescence emission at 460 nm from 380 nm excitation measured with a microplate reader. In another assay format, the concentrations of reagents were as follows: 20 mM Tris pH 7.5, 1 mM EDTA, 150 mM sodium chloride, 0.1% PEG-400, 0.1% Triton X-100, 5 pM activated kallikrein enzyme, 300 uM PFR-AMC substrate. Prior to reaction initiation with substrate, enzyme and inhibitors were preincubated for 30 min at room temperature. After initiation with substrate, reactions were incubated for 18 hr at room temperature and fluorescence emission at 460 nm from 380 nm excitation measured with a microplate reader.
Table 35 provides the results of the assay in the format with 500 pM activated kallikrein assay.

Sequence of human activated kallikrein enzyme (P03952 391-638 limits assumed): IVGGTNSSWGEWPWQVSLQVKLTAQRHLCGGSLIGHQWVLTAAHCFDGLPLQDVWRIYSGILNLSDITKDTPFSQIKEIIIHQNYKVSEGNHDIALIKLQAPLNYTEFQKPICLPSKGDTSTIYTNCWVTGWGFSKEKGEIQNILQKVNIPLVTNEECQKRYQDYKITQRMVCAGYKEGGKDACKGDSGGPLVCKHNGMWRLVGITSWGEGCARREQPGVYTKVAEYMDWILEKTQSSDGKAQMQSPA
Sequence of human activated kallikrein enzyme (P03952 20-390 partner limits assumed): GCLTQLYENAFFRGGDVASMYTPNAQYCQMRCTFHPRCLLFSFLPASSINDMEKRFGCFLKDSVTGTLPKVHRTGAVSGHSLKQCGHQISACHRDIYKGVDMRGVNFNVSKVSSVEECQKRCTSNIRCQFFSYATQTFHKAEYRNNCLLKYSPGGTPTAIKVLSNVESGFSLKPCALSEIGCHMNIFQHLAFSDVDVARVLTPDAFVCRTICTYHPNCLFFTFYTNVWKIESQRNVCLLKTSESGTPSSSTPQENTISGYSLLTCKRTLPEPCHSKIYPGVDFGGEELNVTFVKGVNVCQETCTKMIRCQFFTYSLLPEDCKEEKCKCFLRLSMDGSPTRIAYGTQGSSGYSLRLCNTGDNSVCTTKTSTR

Row | SMILES | EC50
1 | Cc1cc2c(N)nccc2c(C)c1CNC(=O)c1cnn(Cc2cnc3ccc(Br)cc3c2)c1 [Example 70, N-((1-amino-5,7-dimethylisoquinolin-6-yl)methyl)-1-((6-bromoquinolin-3-yl)methyl)-1H-pyrazole-4-carboxamide] | < 1 nM
2 | COc1nc2ccccc2cc1Cn1cc(C(=O)NCc2c(C)cc3c(N)nccc3c2C)cn1 [Example 67, N-((1-amino-5,7-dimethylisoquinolin-6-yl)methyl)-1-((2-methoxyquinolin-3-yl)methyl)-1H-pyrazole-4-carboxamide] | 1 to 10 nM
3 | Cc1cc2c(N)nccc2c(C)c1CNc1nccc2cn(Cc3cn4cc(C5CC5)cnc4n3)nc12 [Example 264, 6-(((2-((6-cyclopropylimidazo[1,2-a]pyrimidin-2-yl)methyl)-2H-pyrazolo[3,4-c]pyridin-7-yl)amino)methyl)-5,7-dimethylisoquinolin-1-amine] | < 1 nM
4 | Cc1cc2c(N)nccc2c(C)c1CNC(=O)c1cnn(Cc2ccc(C#N)cc2)c1 [Example 92, N-((1-amino-5,7-dimethylisoquinolin-6-yl)methyl)-1-(4-cyanobenzyl)-1H-pyrazole-4-carboxamide] | 10 to 100 nM
5 | Cc1cc2c(N)nccc2c(C)c1CNC(=O)Nc1ncncc1OCc1cn2cc(C3CC3)ccc2n1 [Example 507, 1-((1-amino-5,7-dimethylisoquinolin-6-yl)methyl)-3-(5-((6-cyclopropylimidazo[1,2-a]pyridin-2-yl)methoxy)pyrimidin-4-yl)urea] | 1 to 10 nM
6 | Cc1ccnc(Cc2ccc(CNc3cc(NCc4c(C)cc5c(N)nccc5c4C)ncn3)cc2)c1 [Example 364, N^4-((1-amino-5,7-dimethylisoquinolin-6-yl)methyl)-N^6-(4-((4-methylpyridin-2-yl)methyl)benzyl)pyrimidine-4,6-diamine] | < 1 nM
7 | Cc1cc2c(N)nccc2c(C)c1CNc1nccc2cn(Cc3cn4cc(C5CC5)ccc4n3)nc12 [Example 271, 6-(((2-((6-cyclopropylimidazo[1,2-a]pyridin-2-yl)methyl)-2H-pyrazolo[3,4-c]pyridin-7-yl)amino)methyl)-5,7-dimethylisoquinolin-1-amine] | < 1 nM
8 | Cc1cc2c(N)nccc2c(C)c1CNC(=O)c1cnn(Cc2ccc(CC(=O)N3C[C@@H]4[C@@H](CF)[C@@H]4C3)cc2)c1 [Example 207, N-((1-amino-5,7-dimethylisoquinolin-6-yl)methyl)-1-(4-(2-((1R,5S,6r)-6-(fluoromethyl)-3-azabicyclo[3.1.0]hexan-3-y1)-2-oxoethyl)benzyl)-1H-pyrazole-4-carboxamide] | 1 to 10 nM
9 | Cc1cc2c(N)nccc2c(C)c1CNc1cc(C(O)c2cn3cc(C4CC4)ccc3n2)ncn1 (centres unmarked) [Example 406, (6-(((1-amino-5,7-dimethylisoquinolin-6-yl)methyl)amino)pyrimidin-4-yl)(6-cyclopropylimidazo[1,2-a]pyridin-2-yl)methanol] | < 1 nM
10 | Cc1cc2c(N)nccc2c(C)c1CNc1cc(C(F)c2cn3cc(C4CC4)ccc3n2)ncn1 (centres unmarked) [Example 529, 6-(((6-((6-cyclopropylimidazo[1,2-a]pyridin-2-yl)fluoromethyl)pyrimidin-4-yl)amino)methyl)-5,7-dimethylisoquinolin-1-amine] | 1 to 10 nM
11 | Cc1cc2c(N)nccc2c(C)c1CNC(=O)c1cnn(Cc2cc3cc(Cl)ccc3s2)c1 [Example 65, N-((1-amino-5,7-dimethylisoquinolin-6-yl)methyl)-1-((5-chlorobenzo[b]thiophen-2-yl)methyl)-1H-pyrazole-4-carboxamide] | < 1 nM
12 | Cc1cc2c(N)nccc2c(C)c1CNC(=O)c1cc(CN)nn1Cc1ccccc1 [Example 202, N-((1-amino-5,7-dimethylisoquinolin-6-yl)methyl)-3-(aminomethyl)-1-benzyl-1H-pyrazole-5-carboxamide] | > 1000 nM
13 | Cc1cc2c(N)nccc2c(C)c1CNC(=O)c1cnn(Cc2cc3cc(C4CC4)ccn3n2)c1 [Example 121, N-((1-amino-5,7-dimethylisoquinolin-6-yl)methyl)-1-((5-cyclopropylpyrazolo[1,5-a]pyridin-2-yl)methyl)-1H-pyrazole-4-carboxamide] | < 1 nM
14 | Cc1cc2c(N)nccc2c(C)c1CNc1nccnc1OCc1cn2cc(C3CC3)ccc2n1 [Example 287, 6-(((3-((6-cyclopropylimidazo[1,2-a]pyridin-2-yl)methoxy)pyrazin-2-yl)amino)methyl)-5,7-dimethylisoquinolin-1-amine] | 10 to 100 nM
15 | Cc1cnc2ccc(C(C)Oc3cnnc(NCc4c(C)cc5c(N)nccc5c4C)c3)cc2c1 (centres unmarked) [Example 419, 5,7-dimethyl-6-(((5-(1-(3-methylquinolin-6-yl)ethoxy)pyridazin-3-yl)amino)methyl)isoquinolin-1-amine] | < 1 nM
16 | Cc1cc2c(N)nccc2c(C)c1CNc1cc(NCc2ccc(Oc3ccccn3)cc2)ncn1 [Example 361, N^4-((1-amino-5,7-dimethylisoquinolin-6-yl)methyl)-N^6-(4-(pyridin-2-yloxy)benzyl)pyrimidine-4,6-diamine] | 1 to 10 nM
17 | Cc1cc2c(N)nccc2c(C)c1CNc1cc(NCc2cn3ccccc3n2)ncn1 [Example 321, N^4-((1-amino-5,7-dimethylisoquinolin-6-yl)methyl)-N^6-(imidazo[1,2-a]pyridin-2-ylmethyl)pyrimidine-4,6-diamine] | 1 to 10 nM
18 | CC(=O)Nc1nccc2c(C)c(CNc3cc(OCc4ccc(Cn5cccn5)cc4)cnn3)c(C)cc12 [Example I-470, N-(6-(((5-((4-((1H-pyrazol-1-yl)methyl)benzyl)oxy)pyridazin-3-yl)amino)methyl)-5,7-dimethylisoquinolin-1-yl)acetamide] | 10 to 100 nM
19 | Cc1cc2c(N)nccc2c(C)c1CNc1cc(OCc2ccc(Cc3ccn(C)n3)cc2)ncn1 [Example 297, 5,7-dimethyl-6-(((6-((4-((1-methyl-1H-pyrazol-3-yl)methyl)benzyl)oxy)pyrimidin-4-yl)amino)methyl)isoquinolin-1-amine, formic acid salt] | 1 to 10 nM
20 | Cc1cc(Cn2cc(C(=O)NCc3c(C)cc4c(N)nccc4c3C)cn2)ccc1CC(=O)N(C)C [Example 26, N-((1-amino-5,7-dimethylisoquinolin-6-yl)methyl)-1-(4-(2-(dimethylamino)-2-oxoethyl)-3-methylbenzyl)-1H-pyrazole-4-carboxamide] | < 1 nM
21 | Cc1cc2c(N)nccc2c(C)c1CNc1cc(NCc2ccc3c(c2)N(C)C(=O)CO3)ncn1 [Example 327, 6-(((6-(((1-amino-5,7-dimethylisoquinolin-6-yl)methyl)amino)pyrimidin-4-yl)amino)methyl)-4-methyl-2H-benzo[b][1,4]oxazin-3(4H)-one, formic acid salt] | 1 to 10 nM
22 | Cc1cc2c(N)nccc2c(C)c1CNC(=O)c1cnn(Cc2ccccn2)c1 [Example 78, N-((1-amino-5,7-dimethylisoquinolin-6-yl)methyl)-1-(pyridin-2-ylmethyl)-1H-pyrazole-4-carboxamide] | 100 to 1000 nM
23 | CCOC(=O)Nc1nccc2c(C)c(CNc3cc(NCc4ccc(Cn5ccccc5=O)cc4)ncn3)c(C)cc12 [Example 249, ethyl (5,7-dimethyl-6-(((6-((4-((2-oxopyridin-1(2H)-yl)methyl)benzyl)amino)pyrimidin-4-yl)amino)methyl)isoquinolin-1-yl)carbamate] | 10 to 100 nM
24 | CCOC(=O)N(C)c1ccc(Cn2cc(C(=O)NCc3c(C)cc4c(N)nccc4c3C)cn2)cc1 [Example 25, ethyl (4-((4-(((1-amino-5,7-dimethylisoquinolin-6-yl)methyl)carbamoyl)-1H-pyrazol-1-yl)methyl)phenyl)(methyl)carbamate] | 1 to 10 nM
25 | Cc1cc2c(N)nccc2c(C)c1CNc1cc(OCc2cn3c(C)c(Cl)ccc3n2)ncn1 [Example 304, 6-(((6-((6-chloro-5-methylimidazo[1,2-a]pyridin-2-yl)methoxy)pyrimidin-4-yl)amino)methyl)-5,7-dimethylisoquinolin-1-amine] | < 1 nM
26 | Cc1cc2c(N)nccc2c(C)c1CNC(=O)c1cnn(Cc2ccc(C3(C(=O)N4CCCC4)CC3)cc2)c1 [Example 122, N-((1-amino-5,7-dimethylisoquinolin-6-yl)methyl)-1-(4-(1-(pyrrolidine-1-carbonyl)cyclopropyl)benzyl)-1H-pyrazole-4-carboxamide] | < 1 nM
27 | COCc1c(C(=O)NCc2c(C)cc3c(N)nccc3c2C)cnn1Cc1ccc(Cn2cccn2)cc1 [Example 188, 1-(4-((1H-pyrazol-1-yl)methyl)benzyl)-N-((1-amino-5,7-dimethylisoquinolin-6-yl)methyl)-5-(methoxymethyl)-1H-pyrazole-4-carboxamide] | 10 to 100 nM

Same assay, conditions: Primary Dose Response Assay: Average EC50, 500 pM activated kallikrein; 300 μM PFR-AMC; 30 min preincubation; 10 min room temperature; pH 7.5

Row | SMILES | EC50
28 | Cc1c(CNC(=O)c2cnn(Cc3ccccc3)c2)c(C)c2ccnc(N)c2c1C [Example 170, N-((1-amino-5,7,8-trimethylisoquinolin-6-yl)methyl)-1-benzyl-1H-pyrazole-4-carboxamide] | > 1000 nM
29 | Cc1cc2c(N)nccc2c(C)c1CNC(=O)c1cn(Cc2cn3cc(C4CC4)ccc3n2)c2cccnc12 [Example I-485, N-((1-amino-5,7-dimethylisoquinolin-6-yl)methyl)-1-((6-cyclopropylimidazo[1,2-a]pyridin-2-yl)methyl)-1H-pyrrolo[3,2-b]pyridine-3-carboxamide] | 1 to 10 nM

Source: patent US20260374754A1, “N-((ISOQUINOLIN-6-YL)METHYL)-1H-PYRAZOLE-4-CARBOXAMIDE DERIVATIVES AS PLASMA KALLIKREIN INHIBITORS FOR THE TREATMENT OF HEREDITARY ANGIODEMA” (Takeda Pharmaceutical Company Limited, priority 2022, published 2026)
